What was measured:
D458Med cells = experiment: miRNA mimic library screen, CellTiter-Glo cell viability; format: cell-based; settings: D458Med cells, 72 hours
Description: To identify miRNAs that may sensitize VCR response in MB, a high-throughput screening platform was combined with a library of 1,902 chemically synthesized human miRNA mimics. The miRNAs are arrayed in a one-miRNA-one-well format in 96-well microtiter plates. Reverse transfection of Group 3/c-Myc-amplified D458Med cells was performed in triplicate in the presence and absence of a sublethal dose of VCR, which was optimized in four MB cell lines before the screen (FIG. 2A). Cells were subjected to VCR at an IC20 lethal concentration for 72 hours after 48 hours of transfection, and cell viability was measured (FIG. 1A). Candidate miRNAs were prioritized for validation by functional and interaction assays using standard Student t-tests (with pooled variance), false discovery rate (Q=0.5%), and by using the magnitude of response (lowest 2.5 percentile of the distribution of the μVCR/μControl ratios).
miRNA mimic library screen. The primary screen was conducted using MI00200 MISSION microRNA Mimic v.17, in which miRNA mimics were arrayed in a one-miRNA-one-well format in 96-well microtiter plates. […] Cell viability was assessed using CellTiter-Glo (Promega, Madison, Wis., USA) according to the manufacturer's protocol. ath-miR-416 or cel-miR-243 was added as a negative control, whereas siRNA against PLK-1 was used as a positive control in each plate. […]

melanoma cells = settings: cited from earlier work

CC[C@]1(O)C[C@H]2CN(CCc3c([nH]c4ccccc34)[C@@](C(=O)OC)(c3cc4c(cc3OC)N(C=O)[C@H]3[C@@](O)(C(=O)OC)[C@H](OC(C)=O)[C@]5(CC)C=CCN6CC[C@]43[C@@H]65)C2)C1 [VCR, vincristine, reference compound]
20% inhibitory concentration (D458Med cells): 2 nM

Nc1ccccc1NC(=O)c1ccc(CNC(=O)OCc2cccnc2)cc1 [MS-275]
RAD51 expression (melanoma cells): decreases RAD51 expression
homologous recombination (HR) (melanoma cells): blocks HR

From patent publication US20210071180A1, “MICRORNA 584-5P COMPOSITIONS AND METHODS FOR TREATING CANCER” (BOARD OF REGENTS, THE UNIVERSY OF TEXAS SYSTEM, priority 2018, published 2021)
